Source: patent publication US20120065179A1, “PRODRUG COMPRISING BETA-KETO CARBOXYLIC ACID, BETA-KETO CARBOXYLIC ACID SALT OR BETA-KETO CARBOXYLIC ACID ESTER FOR DRUG DELIVERY” (YKI, Ytemiska Institutet AB, priority 2009, published 2012)
Like-named read-outs stand apart in the source and are kept apart here. Marks after values point to notes of the source that are not given here.

What was measured:
[1] = tested on: rat; settings: cited from earlier work
[2] = Sustained release of acetophenone in vitro in model blood electrolyte solution at 37° C.; type: physicochemical; settings: for Concentration of sodium benzoyl acetate model prodrug in sample: model blood electrolyte solution pH 7.4
Description: (§1) A 0.2 M solution of ethyl benzoyl acetate (90%, Sigma Aldrich) in 0.5 M NaOH (aq) was prepared at room temperature and stirred for typically 5-24 hours, still at room temperature. After this time a major part of the ethyl benzoyl acetate had been transformed into dissolved sodium benzoyl acetate, as evidenced by monitoring the reaction by analysis of samples by reversed phase HPLC. Some acetophenone and remaining ethyl benzoyl acetate were typically present in the samples, but in minor amounts. The method employed a C8 column with an inner diameter of 150×4.6 mm and 5 micron particles. The mobile phase consisted of 400 ml deionized water+600 ml acetonitrile+0.196 g H3PO4 (85%)+2.760 g NaH2PO4*H2O. The flow rate was set to 1.0 mL/min and UV detection at 254 nm was employed for analysis of the compounds ethylbenzoylacetate (precursor), benzoylacetate (model prodrug) and acetophenone (model drug).
Ethyl benzoyl acetate was saponified according to the description in Example 1, and after 7 hours a solution containing about 0.2 M of the sodium salt of benzoyl acetate was obtained.

[3] = pH 7
[4] = physchem
[5] = Storage stability of benzoylacetate salts and their corresponding acid (HPLC or gravimetric); type: physicochemical; settings: for % relative to initial sample amount (by HPLC): stored in freezer (ca −18° C.); for Absolute amount of calcium benzoylacetate in sample (wt %, from HPLC): solid
Description: as §1
The storage stability of the sodium and calcium salts of benzoylacetate, and of benzoylacetic acid, in solid form, and in aqueous solutions, was investigated by storage of samples under various conditions (see Table 3a above) with regular HPLC- or gravimetric measurements of the samples from time to time. Samples denoted “neutralized” were prepared from a solution prepared as described in Example 1, which was neutralized with diluted HCl after performing the steps in Example 1.
From the data it can be concluded that the best storage stability at room temperature is obtained by storage in the form of the calcium salt.

[6] = Re-activation of storage stabile beta-keto calcium salt by dissolution, release of ketone (odour); type: physicochemical
Description: 25 mg of the precipitated and dried calcium salt prepared in Example 2, was, after being subjected to the storage stability test of Example 4, dissolved in 5.66 g of tap water and boiled for two minutes.

[7] = Aqueous solubility of benzoylacetate salts (Example 13a); settings: water

SMILES: CCN [ethyl amine]
- LD50 [1]: 280 mg/kg

SMILES: O=C([O-])CC(=O)c1ccccc1.[Na+] [sodium benzoylacetate]
- half-life at 2 mM ([2]; model blood electrolyte solution pH 7.4, 37° C., read-out: estimated half-life (converted)): ~1200 min
- Concentration of sodium benzoyl acetate model prodrug in sample ([2]; Time @ 37° C. 0.42): 2.66 mM
- Concentration of sodium benzoyl acetate model prodrug in sample ([2]; Time @ 37° C. 2.25): 2.30 mM
- Concentration of sodium benzoyl acetate model prodrug in sample ([2]; Time @ 37° C. 3.17): 2.44 mM
- Concentration of sodium benzoyl acetate model prodrug in sample ([2]; Time @ 37° C. 4.17): 2.40 mM
- Concentration of sodium benzoyl acetate model prodrug in sample ([2]; Time @ 37° C. 6.17): 1.71 mM
- Concentration of sodium benzoyl acetate model prodrug in sample ([2]; Time @ 37° C. 8.25): 1.96 mM
- Concentration of sodium benzoyl acetate model prodrug in sample ([2]; Time @ 37° C. 10.17): 1.69 mM
- Concentration of sodium benzoyl acetate model prodrug in sample ([2]; Time @ 37° C. 12.17): 1.59 mM
- Concentration of sodium benzoyl acetate model prodrug in sample ([2]; Time @ 37° C. 13.92): 1.52 mM
- Concentration of sodium benzoyl acetate model prodrug in sample ([2]; Time @ 37° C. 17.92): 1.43 mM
- Concentration of sodium benzoyl acetate model prodrug in sample ([2]; Time @ 37° C. 21.17): 1.31 mM
- Concentration of sodium benzoyl acetate model prodrug in sample ([2]; Time @ 37° C. 24.92): 1.02 mM
- Concentration of sodium benzoyl acetate model prodrug in sample ([2]; Time @ 37° C. 31.33): 0.94 mM
- Concentration of sodium benzoyl acetate model prodrug in sample ([2]; Time @ 37° C. 48.75): 0.53 mM
- Concentration of sodium benzoyl acetate model prodrug in sample ([2]; Time @ 37° C. 76.33): 0.20 mM
- Solubility [3]: ≧200 mM
- Solubility ([4]; pH 7, water, Solubility): > 200 mM
- Solubility ([4]; water, Solubility (mM, as acetophenone equivalents)): ≥ 200 mM
- % relative to sample amount remaining after 2 days (by HPLC) ([5]; Alkaline solution of Na-benzoyl acetate from Example 1, stored at room T, storage time 2 days): 100.0%
- % relative to sample amount remaining after 2 days (by HPLC) ([5]; Alkaline solution of Na-benzoyl acetate from Example 1, stored at room T, storage time 8 days): 66.2%
- % relative to sample amount remaining after 2 days (by HPLC) ([5]; Alkaline solution of Na-benzoyl acetate from Example 1, stored at room T, storage time 23 days): 10.0%
- % relative to sample amount remaining after 2 days (by HPLC) ([5]; Neutralized solution of Na-benzoyl acetate from Example 1 (pH 7.1), at room T, storage time 2 days): 100.0%
- % relative to sample amount remaining after 2 days (by HPLC) ([5]; Neutralized solution of Na-benzoyl acetate from Example 1 (pH 7.1), at room T, storage time 8 days): 52.0%
- % relative to sample amount remaining after 2 days (by HPLC) ([5]; Neutralized solution of Na-benzoyl acetate from Example 1 (pH 7.1), at room T, storage time 23 days): 8.9%
- % relative to sample amount remaining after 2 days (by HPLC) ([5]; Solid Na-salt, neutralized, 30-50% RH at room T, storage time 2 days): 100.0%
- % relative to sample amount remaining after 2 days (by HPLC) ([5]; Solid Na-salt, neutralized, 30-50% RH at room T, storage time 8 days): 84.8%
- % relative to sample amount remaining after 2 days (by HPLC) ([5]; Solid Na-salt, neutralized, 30-50% RH at room T, storage time 23 days): 33.4%
- % of absolute amount expected to be present in sample (by HPLC) ([5]; Solid Na-salt, neutralized, 30-50% RH at room T, storage time 185 days): 1.3*** %
- % of absolute amount expected to be present in sample (by HPLC) ([5]; Solid Na-salt, neutralized, stored at 6° C., storage time 0 days): 103.1%
- % of absolute amount expected to be present in sample (by HPLC) ([5]; Solid Na-salt, neutralized, stored at 6° C., storage time 2 days): 112.6%
- % of absolute amount expected to be present in sample (by HPLC) ([5]; Solid Na-salt, neutralized, stored at 6° C., storage time 5 days): 109.2%
- % of absolute amount expected to be present in sample (by HPLC) ([5]; Solid Na-salt, neutralized, stored at 6° C., storage time 8 days): 102.0%
- % of absolute amount expected to be present in sample (by HPLC) ([5]; Solid Na-salt, neutralized, stored at 6° C., storage time 12 days): 100.7%
- % of absolute amount expected to be present in sample (by HPLC) ([5]; Solid Na-salt, neutralized, stored at 6° C., storage time 16 days): 98.5%
- % of absolute amount expected to be present in sample (by HPLC) ([5]; Solid Na-salt, neutralized, stored at 6° C., storage time 21 days): 81.9%
- % of absolute amount expected to be present in sample (by HPLC) ([5]; Solid Na-salt, neutralized, stored at 6° C., storage time 37 days): 74.6%
- % of absolute amount expected to be present in sample (by HPLC) ([5]; Solid Na-salt, neutralized, stored at 6° C., storage time 49 days): 72.3%
- % of absolute amount expected to be present in sample (by HPLC) ([5]; Solid Na-salt, neutralized, stored at 60° C., storage time 0.02 days): 77.2%
- % of absolute amount expected to be present in sample (by HPLC) ([5]; Solid Na-salt, neutralized, stored at 60° C., storage time 0.8 days): 10.7%
- % of absolute amount expected to be present in sample (by HPLC) ([5]; Solid Na-salt, neutralized, stored at 60° C., storage time 9.1 days): 3.6%
- % relative to initial sample amount (by HPLC) ([5]; Solid Na-salt, neutralized, storage time 0 days): 100%
- % relative to initial sample amount (by HPLC) ([5]; Solid Na-salt, neutralized, storage time 2 days): 100%
- % relative to initial sample amount (by HPLC) ([5]; Solid Na-salt, neutralized, storage time 5 days): 124%
- % relative to initial sample amount (by HPLC) ([5]; Solid Na-salt, neutralized, storage time 8 days): 106%
- % relative to initial sample amount (by HPLC) ([5]; Solid Na-salt, neutralized, storage time 12 days): 112%
- % relative to initial sample amount (by HPLC) ([5]; Solid Na-salt, neutralized, storage time 16 days): 106%
- % relative to initial sample amount (by HPLC) ([5]; Solid Na-salt, neutralized, storage time 21 days): 101%
- % relative to initial sample amount (by HPLC) ([5]; Solid Na-salt, neutralized, storage time 37 days): 105%
- % relative to initial sample amount (by HPLC) ([5]; Solid Na-salt, neutralized, storage time 49 days): 117%
- % relative to sample amount remaining after 2 days (by HPLC) ([5]; Solid Na-salt, non neutralized, 30-50% RH at room T, storage time 2 days): 100.0%
- % relative to sample amount remaining after 2 days (by HPLC) ([5]; Solid Na-salt, non neutralized, 30-50% RH at room T, storage time 8 days): 46.8%
- % relative to sample amount remaining after 2 days (by HPLC) ([5]; Solid Na-salt, non neutralized, 30-50% RH at room T, storage time 23 days): 12.4%

SMILES: CN [methyl amine]
- LD50 [1]: 100 mg/kg

SMILES: O=C([O-])CC(=O)c1ccccc1.O=C([O-])CC(=O)c1ccccc1.[Ca+2] [calcium benzoylacetate, Ca(benzoylacetate)2]
- release of acetophenone (odour) ([6]; 25 mg dissolved in 5.66 g tap water and boiled for two minutes, after storage stability test): strong odour of acetophenone
- release of acetophenone (odour) ([6]; similar amount kept in dry form in an identical beaker): did not give rise to any acetophenone odour
- Solubility ([7]; as Ca(benzoylacetate)2, corrected for 40 wt % content): 69 mM
- Solubility (mM, as acetophenone equivalents) ([7]; benzoylacetate in the solution, corrected for 40 wt % content): 138 mM
- solubility limit ([7]; dry calcium salt sample containing only 40 wt % calcium benzoyl acetate): ~63 mg/mL
- Absolute amount of calcium benzoylacetate in sample (wt %, from HPLC) ([5]; 1 days at room T and typical indoor humidity, 0 days at 50% RH and room T, 0 days at 60° C. in oven): 35.9 wt %
- Absolute amount of calcium benzoylacetate in sample (wt %, from HPLC) ([5]; 1.9 days at room T and typical indoor humidity, 0 days at 50% RH and room T, 0 days at 60° C. in oven): 34.2 wt %
- Absolute amount of calcium benzoylacetate in sample (wt %, from HPLC) ([5]; 8 days at room T and typical indoor humidity, 0 days at 50% RH and room T, 0 days at 60° C. in oven): 43.0 wt %
- Absolute amount of calcium benzoylacetate in sample (wt %, from HPLC) ([5]; 9 days at room T and typical indoor humidity, 0 days at 50% RH and room T, 103 days at 60° C. in oven): 45.6 wt %
- Absolute amount of calcium benzoylacetate in sample (wt %, from HPLC) ([5]; 9 days at room T and typical indoor humidity, 103 days at 50% RH and room T, 0 days at 60° C. in oven): 32.1 wt %
- Absolute amount of calcium benzoylacetate in sample (wt %, from HPLC) ([5]; 28 days at room T and typical indoor humidity, 0 days at 50% RH and room T, 0 days at 60° C. in oven): 33.1 wt %
- Absolute amount of calcium benzoylacetate in sample (wt %, from HPLC) ([5]; 112 days at room T and typical indoor humidity, 0 days at 50% RH and room T, 0 days at 60° C. in oven): 40.4 wt %
